# Where two headings read alike, the source gives them in different places.
# How the values were obtained:
# Assay type in all cases: cell-based
# human CCR1 [1] = target: T1, human CCR1 (Homo sapiens, UniProt P32246); assay: RANTES-induced CCR1/HEK-293 transfectant migration
# T1 construct: expressed in transfected cells; host or cells: HEK-293
# T1 sequence (P32246 1-355): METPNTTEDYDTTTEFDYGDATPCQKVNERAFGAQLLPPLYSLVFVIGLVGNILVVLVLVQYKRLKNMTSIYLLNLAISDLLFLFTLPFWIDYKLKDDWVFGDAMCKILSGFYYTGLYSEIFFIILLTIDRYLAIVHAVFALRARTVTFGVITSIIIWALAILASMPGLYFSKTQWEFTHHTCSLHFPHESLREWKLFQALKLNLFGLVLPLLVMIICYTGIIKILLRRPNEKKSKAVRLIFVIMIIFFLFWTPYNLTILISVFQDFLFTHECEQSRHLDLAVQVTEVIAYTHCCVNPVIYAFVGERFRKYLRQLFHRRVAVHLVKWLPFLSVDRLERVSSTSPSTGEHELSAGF
# Protocol: (§1) Human embryonic kidney cells 293 (HEK-293) transfected to express human CCR1, CCR3, or CCR5 receptors were cultured in Dulbecco's Modified Eagles Medium (DMEM, Biowhiftaker, Walkersville, Md.) containing 10% Fetal Bovine Serum (FBS, Hyclone, Logan, Utah), 2 mM glutamine and 100 U/ml penicillin and streptomycin (Quality Biologicals, Gaithersburg, Md.). Peripheral blood mononuclear cells were isolated from fresh normal donor apheresis packs by centrifugation over Ficoll.
# (§2) The number of cells migrating to the chemokine mixtures was determined for binding media alone, and chemokine treated and untreated cells. HEK-293 cells transfected to express human CCR1, CCR3 or CCR5 receptors were resuspended in binding media at 7.5×10^5 cells/ml. Ten μm polyvinyl-free polycarbonate membranes (Neuro Probe) were treated with 47 ug/ml rat tail collagen type 1 (Collaborative Biomedical Products, Bedford, Md.) in RPMI-1640 overnight, dried and placed over the chemoattractants. The assembled chemotaxis chambers were incubated in a humidified CO2 incubator for 5.5–6 hours. After the incubation, the membranes were removed from the chemotaxis chamber assembly followed by gently removing cells from the upper side of the membrane. The stained and dried membrane was mounted and the cells on the underside of the membrane were counted at 200× magnification.
# [2] = test system: human monocytes (RANTES-induced migration); assay: RANTES-induced monocyte migration (micro-chemotaxis chamber); settings: for IC50: Homo sapiens, Monocyte, ≦ 5% standard error, NA = not active; for activity as inhibitors of RANTES-induced migration: discussion of Table 1
# Protocol: as §1, with “Ficoll. Monocytes were enriched by 85–95% using percoll fractionation (Pharmacia, Piscataway, N.J.).” for “Ficoll.”
# (§3) Monocyte chemotaxis was performed as previously described [Wang (1993) J. Immunol. 150:3022–3029]. Briefly, monocytes were resuspended in binding media (RPMI-1640 media containing 1% BSA, 25 mM HEPES, pH 8.0) at 1–2×10^6 cells/ml. Chemokines, diluted in binding media, were mixed with cosalane or the indicated cosalane analog and placed in the lower wells of a micro-chemotaxis chamber (Neuro Probe, Cabin John, Md.). Five micrometer polyvinyl-free polycarbonate membranes were placed over the chemokine mixtures. After the micro-chemotaxis chamber was assembled, 50 μl of cells were placed in the upper wells. The filled chemotaxis chambers were incubated in a humidified CO2 incubator for 90 minutes.
# (§4) After incubating, the membranes were removed from the chemotaxis chamber assembly followed by gently removing the cells from the upper side of the membrane. Then cells on the lower side of the membrane were stained.
# as §2, with “magnification. The results are reported as the average number of cells per high powered field at a given chemokine concentration±standard deviation.” for “magnification.”
# human CCR3 = target: T2, human CCR3 (Homo sapiens, UniProt P51677); assay: eotaxin-induced CCR3/HEK-293 cell migration; settings: eotaxin-induced CCR3/HEK-293 migration, figures
# T2 construct: expressed in transfected cells; host or cells: HEK-293
# T2 sequence (P51677 1-355): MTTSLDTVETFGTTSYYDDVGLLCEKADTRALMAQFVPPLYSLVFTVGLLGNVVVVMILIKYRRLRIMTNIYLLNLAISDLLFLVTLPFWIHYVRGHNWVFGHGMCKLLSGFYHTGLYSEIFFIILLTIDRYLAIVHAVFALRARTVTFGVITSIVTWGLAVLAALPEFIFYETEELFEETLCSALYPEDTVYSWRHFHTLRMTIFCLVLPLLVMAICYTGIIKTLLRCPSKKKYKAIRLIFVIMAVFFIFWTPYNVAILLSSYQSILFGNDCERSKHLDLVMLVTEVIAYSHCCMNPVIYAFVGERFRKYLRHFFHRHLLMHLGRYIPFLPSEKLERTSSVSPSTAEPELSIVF
# Protocol: as §1, with “Ficoll. Monocytes were enriched by 85–95% using percoll fractionation (Pharmacia, Piscataway, N.J.).” for “Ficoll.”
# as §2, with “magnification. The results are reported as the average number of cells per high powered field at a given chemokine concentration±standard deviation.” for “magnification.”
# [3] = test system: human monocytes (MIP1-α-induced migration); assay: MIP1-α-induced monocyte migration; settings: compound at 1 μM, chemokine at 2.5 ng/ml, data not shown
# Protocol: as §3, with “Chemokines, diluted in binding media, were mixed with cosalane or the indicated cosalane analog and placed in the lower wells of a micro-chemotaxis chamber (Neuro Probe, Cabin John, Md.).” left out
# as §4, §2
# (§5) It is noted that both MIP1-α and MIP1-β are ligands for CCR1, CCR5, and D6 (8).
# [4] = test system: human monocytes (MIP1-β-induced migration); assay: MIP1-β-induced monocyte migration; settings: compound at 1 μM, chemokine at 2.5 ng/ml, data not shown
# Protocol: as §3, with “Chemokines, diluted in binding media, were mixed with cosalane or the indicated cosalane analog and placed in the lower wells of a micro-chemotaxis chamber (Neuro Probe, Cabin John, Md.).” left out
# as §4, §2, §5
# [5] = test system: human monocytes (acetylated RANTES-induced migration); assay: monocyte migration induced by acetylated (modified) RANTES; settings: acetylated RANTES 50–1000 ng/mL, FIG. 6
# Protocol: as §3, §4
# as §2, with “magnification. The results are reported as the average number of cells per high powered field at a given chemokine concentration±standard deviation. […]” for “magnification.”
# human CCR1 [6] = target: T1, human CCR1; assay: MIP1α-induced migration of CCR1 transfectants; settings: compound at 1 μM, data not shown
# Protocol: as §1, with “Ficoll. Monocytes were enriched by 85–95% using percoll fractionation (Pharmacia, Piscataway, N.J.).” for “Ficoll.”
# as §2, with “magnification. The results are reported as the average number of cells per high powered field at a given chemokine concentration±standard deviation.” for “magnification.”
# (§6) The ability of compound 3 to inhibit RANTES-induced migration of human embryonic kidney (HEK) cells transfected to express individual chemokine receptors was initially tested. Although the cosalane analog 3 (1 μM) had no effect on RANTES-induced migration of CCR5 transfectants, it inhibited 50% of RANTES-induced CCR1 transfectant migration (FIG. 2). In contrast, the MIP1α- and MIP1β-induced migration of CCR1 transfectants was not inhibited by compounds 1, 2 or 3 when tested at concentrations of 1 μM (data not shown).
# human CCR1 [7] = target: T1, human CCR1; assay: MIP1β-induced migration of CCR1 transfectants; settings: compound at 1 μM, data not shown
# Protocol: as §1, with “Ficoll. Monocytes were enriched by 85–95% using percoll fractionation (Pharmacia, Piscataway, N.J.).” for “Ficoll.”
# as §2, with “magnification. The results are reported as the average number of cells per high powered field at a given chemokine concentration±standard deviation.” for “magnification.”
# as §6
# [8] = test system: MCP-4/CCR2-mediated monocyte migration; assay: MCP-4-induced human monocyte migration; settings: FIG. 3
# Protocol: as §3, §4
# as §2, with “magnification. The results are reported as the average number of cells per high powered field at a given chemokine concentration±standard deviation.” for “magnification.”
# Although MCP-4 is known to bind to CCR2 and CCR3, fresh primary human monocytes only express high levels of CCR2.
# [9] = ≦ 5% standard error, NA = not active, read-out: IC50 (μM) RANTES-Induced CCRI/HEK Migration
SMILES,IC50 [2] [µM],activity as inhibitors of RANTES-induced migration [2],IC50 (human CCR1 [1]; [9]) [µM],inhibition of CCL11 (eotaxin) interaction with CCR3 (human CCR3),other results
CC(C)CCCC(C)[C@H]1CCC2C3CCC4C[C@@H](CCC=C(c5cc(Cl)c(O)c(C(=O)NCC(=O)O)c5)c5cc(Cl)c(O)c(C(=O)NCC(=O)O)c5)CC[C@]4(C)C3CC[C@@]21C (stereo partly drawn) [Compound 12],–,–,–,–,IC50 (human CCR1 [1]): 10 µM
CC(C)CCCC(C)[C@H]1CCC2C3CCC4C[C@@H](CCC=C(c5cc(Cl)c(OCc6cccc([N+](=O)[O-])c6)c(C(=O)O)c5)c5cc(Cl)c(OCc6cccc([N+](=O)[O-])c6)c(C(=O)O)c5)CC[C@]4(C)C3CC[C@@]21C (stereo partly drawn) [Compound 7],3.5,retain activity,–,–,IC50 (human CCR1 [1]): 5.7 µM
CC(C)CCCC(C)[C@H]1CCC2C3CCC4C[C@@H](CCC=C(c5cc(Cl)c(OCc6cccc(B(O)O)c6)c(C(=O)O)c5)c5cc(Cl)c(OCc6cccc(B(O)O)c6)c(C(=O)O)c5)CC[C@]4(C)C3CC[C@@]21C (stereo partly drawn) [Compound 9],2.2,–,4,inhibit,–
CC(C)CCCC(C)C1CCC2C3CCC4CC(CCC=C(c5cc(Cl)c(OCc6ccc(C(=O)O)cc6)c(C(=O)O)c5)c5cc(Cl)c(OCc6ccc(C(=O)O)cc6)c(C(=O)O)c5)CCC4(C)C3CCC12C (stereo not drawn) [Compound 5],–,inactive,–,–,inhibition of MIP1-α-induced monocyte migration [3]: neither MiP1-α- nor MIP1-β-induced monocyte migration was inhibited; inhibition of MIP1-β-induced monocyte migration [4]: neither MiP1-α- nor MIP1-β-induced monocyte migration was inhibited; inhibition of the activity of modified (acetylated) RANTES to attract monocytes ([5]; 10 μM compound): no statistical difference
"CC(C)CCC[C@@H](C)[C@H]1CC[C@H]2[C@@H]3CC[C@H]4C[C@@H](CCC=C(c5cc(Cl)c(O)c(C(=O)O)c5)c5cc(Cl)c(O)c(C(=O)O)c5)CC[C@]4(C)[C@H]3CC[C@]12C [Compound 1, cosalane]",0.76,–,0.26,inhibit,inhibition of MIP1α-induced migration of CCR1 transfectants (human CCR1 [6]): not inhibited; inhibition of MIP1β-induced migration of CCR1 transfectants (human CCR1 [7]): not inhibited; block of MCP-4/CCR2-mediated monocyte migration [8]: block; inhibition of the activity of modified (acetylated) RANTES to attract monocytes ([5]; 30 μM compound): not inhibited
CC(C)CCCC(C)[C@H]1CCC2C3CCC4C[C@@H](CCC=C(c5cc(Cl)c(OCc6cccc(C(=O)O)c6)c(C(=O)O)c5)c5cc(Cl)c(OCc6cccc(C(=O)O)c6)c(C(=O)O)c5)CC[C@]4(C)C3CC[C@@]21C (stereo partly drawn) [Compound 2],10,retain activity,10,inhibit,"inhibition of MIP1-α-induced monocyte migration [3]: not reduced; inhibition of MIP1-β-induced monocyte migration [4]: very weak inhibitor; reduction in cell numbers, MIP1-β-induced monocyte migration [4]: less than 10%; inhibition of MIP1α-induced migration of CCR1 transfectants (human CCR1 [6]): not inhibited; inhibition of MIP1β-induced migration of CCR1 transfectants (human CCR1 [7]): not inhibited; block of MCP-4/CCR2-mediated monocyte migration [8]: block"
CC(C)CCCC(C)[C@H]1CCC2C3CCC4C[C@@H](CCC=C(c5cc(Cl)c(OCc6ccc(-c7cccc(C(=O)O)c7)cc6)c(C(=O)O)c5)c5cc(Cl)c(OCc6ccc(-c7cccc(C(=O)O)c7)cc6)c(C(=O)O)c5)CC[C@]4(C)C3CC[C@@]21C (stereo partly drawn) [Compound 6],3,retain activity,9.1,–,–
CSCC[C@H](NC(=O)c1cc(C(=CCC[C@H]2CC[C@@]3(C)C(CCC4C3CC[C@@]3(C)C4CC[C@@H]3C(C)CCCC(C)C)C2)c2cc(Cl)c(O)c(C(=O)N[C@@H](CCSC)C(=O)O)c2)cc(Cl)c1O)C(=O)O (stereo partly drawn) [Compound 15],0.82,retained activity,–,–,–
